# Test results published in paper PMC6979384, “Characterization of the plant homeodomain (PHD) reader family for their histone tail interactions” (Epigenetics & Chromatin, 2020).
# Where no end group is shown, it is not given here. [ ]: non-standard residue; d: D form. Lys(Me3) = C[N+](C)(C)CCCC[C@H](N)C(=O)O
# What was measured:
# Test in all cases: Histone peptide microarray
# Type in all cases: binding, human
# Details in all cases: total n = 4
# TRIM66 (PB) = test system: TRIM66 (PB)
# Summary of the method: (§1)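 Purified PHD finger domains fused to GST are screened against 293 synthetic histone peptides bearing one or several post-translational modifications. The protein is used at 0.5 μM, and the signal from four replicate arrays is averaged, with standard deviation given.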
# ING3 = test system: ING3
# Summary of the method: as §1
# MORC3 (CW) = test system: MORC3 (CW)
# Summary of the method: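 Binding read as mean relative signal from 4 replicates; microarray held 293 synthetic histone peptides with single or combinatorial PTMs. Each GST-tagged PHD reader was applied at 0.5 μM using the optimized Petell protocol.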
# ING5 = test system: ING5
# Summary of the method: as §1
# PHF8 = test system: PHF8
# Summary of the method: as §1
# KDM5A (1) = test system: KDM5A (1)
# Summary of the method: as §1
# ING2 = test system: ING2
# Summary of the method: as §1
# RAG2 = test system: RAG2
# Summary of the method: as §1
# BAZ2B = test system: BAZ2B
# Summary of the method: as §1
# ING1 = test system: ING1
# Summary of the method: as §1
# PHF23 = test system: PHF23
# Summary of the method: as §1
# ING4 = test system: ING4
# Summary of the method: as §1
# KDM5A (3) = test system: KDM5A (3)
# Summary of the method: as §1
# PHRF1 (RP) = test system: PHRF1 (RP)
# Summary of the method: as §1
# KDM7A = test system: KDM7A
# Summary of the method: as §1
# PHF13 = test system: PHF13
# Summary of the method: as §1
# SP140L = test system: SP140L
# Summary of the method: as §1
# DIDO1 = test system: DIDO1
# Summary of the method: as §1
# KDM5B (1) = test system: KDM5B (1)
# Summary of the method: as §1
# KDM4C (TTP) = test system: KDM4C (TTP)
# Summary of the method: as §1
# CHD5 (PPCC) = test system: CHD5 (PPCC)
# Summary of the method: as §1
# PHF2 = test system: PHF2
# Summary of the method: as §1
# TAF3 = test system: TAF3
# Summary of the method: as §1
# PHF21A = test system: PHF21A
# Summary of the method: as §1
# AIRE (PP) = test system: AIRE (PP)
# Summary of the method: as §1
# CHD5 (PCC) = test system: CHD5 (PCC)
# Summary of the method: as §1
# DPF2 (PPC2W2) = test system: DPF2 (PPC2W2)
# Summary of the method: as §1
# CHD4 (PPCC) = test system: CHD4 (PPCC)
# Summary of the method: as §1
# BPTF (PB) = test system: BPTF (PB)
# Summary of the method: as §1
# KDM5B (3) = test system: KDM5B (3)
# Summary of the method: as §1
# MLL5 = test system: MLL5
# Summary of the method: as §1
# [1] = sheet "Array Heatmap", GST-tagged reader, histone peptide array
substance,measurement,setting,value
H3K4me2 + K9ac + K18ac: H3 1-20,Array Heatmap signal (histone peptide microarray),"TRIM66 (PB); GST-tagged TRIM66 (PB = PHD + Bromodomain), sheet Array Heatmap, each array performed twice",0.6398
same,Array Heatmap signal (histone peptide microarray),"ING3; GST-tagged ING3, sheet Array Heatmap, each array performed twice",0.5192
same,Array Heatmap signal (histone peptide microarray),"MORC3 (CW); GST-tagged MORC3 (CW = CW-type Zn-finger), sheet Array Heatmap, each array performed twice",0.6581
same,Array Heatmap signal (histone peptide microarray),"ING5; GST-tagged ING5, sheet Array Heatmap, each array performed twice",0.3511
same,Array Heatmap signal (histone peptide microarray),"PHF8; GST-tagged PHF8, sheet Array Heatmap, each array performed twice",0.4748
same,Array Heatmap signal (histone peptide microarray),"KDM5A (1); GST-tagged KDM5A (1), sheet Array Heatmap, each array performed twice",0.4202
same,Array Heatmap signal (histone peptide microarray),"ING2; GST-tagged ING2, sheet Array Heatmap, each array performed twice",0.7129
same,Array Heatmap signal (histone peptide microarray),"RAG2; GST-tagged RAG2, sheet Array Heatmap, each array performed twice",0.3927
same,Array Heatmap signal (histone peptide microarray),"BAZ2B; GST-tagged BAZ2B, sheet Array Heatmap, each array performed twice",0.4481
same,Array Heatmap signal (histone peptide microarray),"ING1; GST-tagged ING1, sheet Array Heatmap, each array performed twice",0.6509
same,Array Heatmap signal (histone peptide microarray),"PHF23; GST-tagged PHF23, sheet Array Heatmap, each array performed twice",0.6826
same,Array Heatmap signal (histone peptide microarray),"ING4; GST-tagged ING4, sheet Array Heatmap, each array performed twice",0.4671
same,Array Heatmap signal (histone peptide microarray),"KDM5A (3); GST-tagged KDM5A (3), sheet Array Heatmap, each array performed twice",0.7199
same,Array Heatmap signal (histone peptide microarray),"PHRF1 (RP); GST-tagged PHRF1 (RP), sheet Array Heatmap, each array performed twice",0.5931
same,Array Heatmap signal (histone peptide microarray),"KDM7A; GST-tagged KDM7A, sheet Array Heatmap, each array performed twice",0.3188
same,Array Heatmap signal (histone peptide microarray),"PHF13; GST-tagged PHF13, sheet Array Heatmap, each array performed twice",0.5893
same,Array Heatmap signal (histone peptide microarray),"SP140L; GST-tagged SP140L, sheet Array Heatmap, each array performed twice",0.3079
same,Array Heatmap signal (histone peptide microarray),"DIDO1; GST-tagged DIDO1, sheet Array Heatmap, each array performed twice",0.8235
same,Array Heatmap signal (histone peptide microarray),"KDM5B (1); GST-tagged KDM5B (1), sheet Array Heatmap, each array performed twice",0.595
same,Array Heatmap signal (histone peptide microarray),"KDM4C (TTP); GST-tagged KDM4C (TTP = Tandem Tudor domain + PHD), sheet Array Heatmap, each array performed twice",0.4492
same,Array Heatmap signal (histone peptide microarray),"CHD5 (PPCC); GST-tagged CHD5 (PPCC = Dual PHD + Dual Chromodomain), sheet Array Heatmap, each array performed twice",0.5253
same,Array Heatmap signal (histone peptide microarray),"PHF2; GST-tagged PHF2, sheet Array Heatmap, each array performed twice",0.8135
same,Array Heatmap signal (histone peptide microarray),"TAF3; GST-tagged TAF3, sheet Array Heatmap, each array performed twice",0.4004
same,Array Heatmap signal (histone peptide microarray),"PHF21A; GST-tagged PHF21A, sheet Array Heatmap, each array performed twice",0.4382
same,Array Heatmap signal (histone peptide microarray),"AIRE (PP); GST-tagged AIRE (PP), sheet Array Heatmap, each array performed twice",0.3953
same,Array Heatmap signal (histone peptide microarray),"CHD5 (PCC); GST-tagged CHD5 (PCC = PHD + Dual Chromodomain), sheet Array Heatmap, each array performed twice",0.7098
same,Array Heatmap signal (histone peptide microarray),"DPF2 (PPC2W2); GST-tagged DPF2 (PPC2W2 = Dual PHD + C2W2-type Zn-finger), sheet Array Heatmap, each array performed twice",0.6346
same,Array Heatmap signal (histone peptide microarray),"CHD4 (PPCC); GST-tagged CHD4 (PPCC = Dual PHD + Dual Chromodomain), sheet Array Heatmap, each array performed twice",0.5347
same,Array Heatmap signal (histone peptide microarray),"BPTF (PB); GST-tagged BPTF (PB = PHD + Bromodomain), sheet Array Heatmap, each array performed twice",0.3833
same,Array Heatmap signal (histone peptide microarray),"KDM5B (3); GST-tagged KDM5B (3), sheet Array Heatmap, each array performed twice",0.5774
same,Array Heatmap signal (histone peptide microarray),"MLL5; GST-tagged MLL5, sheet Array Heatmap, each array performed twice",0.5921
H3K4me2 + T6p: H3 1-20,"Array Heatmap signal, TRIM66 (PB)",TRIM66 (PB); [1],0.586
same,"Array Heatmap signal, ING3",ING3; [1],0.4685
same,"Array Heatmap signal, MORC3 (CW)",MORC3 (CW); [1],0.4606
same,"Array Heatmap signal, ING5",ING5; [1],0.3133
same,"Array Heatmap signal, PHF8",PHF8; [1],0.3931
same,"Array Heatmap signal, KDM5A (1)",KDM5A (1); [1],0.3957
same,"Array Heatmap signal, ING2",ING2; [1],0.6785
same,"Array Heatmap signal, RAG2",RAG2; [1],0.2424
same,"Array Heatmap signal, BAZ2B",BAZ2B; [1],0.3939
same,"Array Heatmap signal, ING1",ING1; [1],0.5538
same,"Array Heatmap signal, PHF23",PHF23; [1],0.5061
same,"Array Heatmap signal, ING4",ING4; [1],0.4083
same,"Array Heatmap signal, KDM5A (3)",KDM5A (3); [1],0.5519
same,"Array Heatmap signal, PHRF1 (RP)",PHRF1 (RP); [1],0.4464
same,"Array Heatmap signal, KDM7A",KDM7A; [1],0.3717
same,"Array Heatmap signal, PHF13",PHF13; [1],0.5699
same,"Array Heatmap signal, SP140L",SP140L; [1],0.3405
same,"Array Heatmap signal, DIDO1",DIDO1; [1],0.7205
same,"Array Heatmap signal, KDM5B (1)",KDM5B (1); [1],0.6237
same,"Array Heatmap signal, KDM4C (TTP)",KDM4C (TTP); [1],0.4526
same,"Array Heatmap signal, CHD5 (PPCC)",CHD5 (PPCC); [1],0.4881
same,"Array Heatmap signal, PHF2",PHF2; [1],0.5776
same,"Array Heatmap signal, TAF3",TAF3; [1],0.2971
same,"Array Heatmap signal, PHF21A",PHF21A; [1],0.4239
same,"Array Heatmap signal, AIRE (PP)",AIRE (PP); [1],0.3956
same,"Array Heatmap signal, CHD5 (PCC)",CHD5 (PCC); [1],0.7961
same,"Array Heatmap signal, DPF2 (PPC2W2)",DPF2 (PPC2W2); [1],0.6113
same,"Array Heatmap signal, CHD4 (PPCC)",CHD4 (PPCC); [1],0.5639
same,"Array Heatmap signal, BPTF (PB)",BPTF (PB); [1],0.3354
same,"Array Heatmap signal, KDM5B (3)",KDM5B (3); [1],0.4514
same,"Array Heatmap signal, MLL5",MLL5; [1],0.5839
"H3K4me3 (1-7): H3 1-7 (ART[Lys(Me3)]QTA; UniProt P68431 2-8, looked up, fragment)",Array Heatmap value (peptide array signal),"TRIM66 (PB); TRIM66 (PB), sheet ""Array Heatmap"", each array performed twice",0.5289
same,Array Heatmap value (peptide array signal),"ING3; ING3, sheet ""Array Heatmap"", each array performed twice",0.472
same,Array Heatmap value (peptide array signal),"MORC3 (CW); MORC3 (CW), sheet ""Array Heatmap"", each array performed twice",0.489
same,Array Heatmap value (peptide array signal),"ING5; ING5, sheet ""Array Heatmap"", each array performed twice",0.4084
same,Array Heatmap value (peptide array signal),"PHF8; PHF8, sheet ""Array Heatmap"", each array performed twice",0.544
same,Array Heatmap value (peptide array signal),"KDM5A (1); KDM5A (1), sheet ""Array Heatmap"", each array performed twice",0.4902
same,Array Heatmap value (peptide array signal),"ING2; ING2, sheet ""Array Heatmap"", each array performed twice",0.6464
same,Array Heatmap value (peptide array signal),"RAG2; RAG2, sheet ""Array Heatmap"", each array performed twice",0.3345
same,Array Heatmap value (peptide array signal),"BAZ2B; BAZ2B, sheet ""Array Heatmap"", each array performed twice",0.5069
same,Array Heatmap value (peptide array signal),"ING1; ING1, sheet ""Array Heatmap"", each array performed twice",0.5185
same,Array Heatmap value (peptide array signal),"PHF23; PHF23, sheet ""Array Heatmap"", each array performed twice",0.5369
same,Array Heatmap value (peptide array signal),"ING4; ING4, sheet ""Array Heatmap"", each array performed twice",0.4911
same,Array Heatmap value (peptide array signal),"KDM5A (3); KDM5A (3), sheet ""Array Heatmap"", each array performed twice",0.5067
same,Array Heatmap value (peptide array signal),"PHRF1 (RP); PHRF1 (RP), sheet ""Array Heatmap"", each array performed twice",0.3886
same,Array Heatmap value (peptide array signal),"KDM7A; KDM7A, sheet ""Array Heatmap"", each array performed twice",0.7221
same,Array Heatmap value (peptide array signal),"PHF13; PHF13, sheet ""Array Heatmap"", each array performed twice",0.6272
same,Array Heatmap value (peptide array signal),"SP140L; SP140L, sheet ""Array Heatmap"", each array performed twice",0.3724
same,Array Heatmap value (peptide array signal),"DIDO1; DIDO1, sheet ""Array Heatmap"", each array performed twice",0.6423
same,Array Heatmap value (peptide array signal),"KDM5B (1); KDM5B (1), sheet ""Array Heatmap"", each array performed twice",0.7094
same,Array Heatmap value (peptide array signal),"KDM4C (TTP); KDM4C (TTP), sheet ""Array Heatmap"", each array performed twice",0.5656
same,Array Heatmap value (peptide array signal),"CHD5 (PPCC); CHD5 (PPCC), sheet ""Array Heatmap"", each array performed twice",0.5698
same,Array Heatmap value (peptide array signal),"PHF2; PHF2, sheet ""Array Heatmap"", each array performed twice",0.4609
same,Array Heatmap value (peptide array signal),"TAF3; TAF3, sheet ""Array Heatmap"", each array performed twice",0.3574
same,Array Heatmap value (peptide array signal),"PHF21A; PHF21A, sheet ""Array Heatmap"", each array performed twice",0.4644
same,Array Heatmap value (peptide array signal),"AIRE (PP); AIRE (PP), sheet ""Array Heatmap"", each array performed twice",0.5351
same,Array Heatmap value (peptide array signal),"CHD5 (PCC); CHD5 (PCC), sheet ""Array Heatmap"", each array performed twice",0.8146
same,Array Heatmap value (peptide array signal),"DPF2 (PPC2W2); DPF2 (PPC2W2), sheet ""Array Heatmap"", each array performed twice",0.6324
same,Array Heatmap value (peptide array signal),"CHD4 (PPCC); CHD4 (PPCC), sheet ""Array Heatmap"", each array performed twice",0.5649
same,Array Heatmap value (peptide array signal),"BPTF (PB); BPTF (PB), sheet ""Array Heatmap"", each array performed twice",0.3708
same,Array Heatmap value (peptide array signal),"KDM5B (3); KDM5B (3), sheet ""Array Heatmap"", each array performed twice",0.5187
same,Array Heatmap value (peptide array signal),"MLL5; MLL5, sheet ""Array Heatmap"", each array performed twice",0.7048
